Measurements taken from ChEMBL document CHEMBL5375956, “Discovery of Pyrazolo[1,5-a]pyrimidine Derivative as a Novel and Selective ALKBH5 Inhibitor for the Treatment of AML” (J Med Chem, 2023).

How the values were obtained:
[1] = target: Alpha-ketoglutarate-dependent dioxygenase FTO (Homo sapiens, UniProt Q9C0B1); assay: Inhibition of FTO (32 to 505 residues)(unknown origin) expressed in Escherichia coli BL21(DE3) by FP assay
[2] = target: T1, RNA demethylase ALKBH5 (Homo sapiens, UniProt Q6P6C2); assay: Inhibition of ALKBH5 (66 to 292 residues)(unknown origin) expressed in Escherichia coli BL21(DE3) using 5'-ATTGTCA(m6A)CAGCAGA-FAM-3' as substrate incubated for 30 mins by FP assay
Target sequence in this assay (Q6P6C2 whole entry, the tested form may be a part): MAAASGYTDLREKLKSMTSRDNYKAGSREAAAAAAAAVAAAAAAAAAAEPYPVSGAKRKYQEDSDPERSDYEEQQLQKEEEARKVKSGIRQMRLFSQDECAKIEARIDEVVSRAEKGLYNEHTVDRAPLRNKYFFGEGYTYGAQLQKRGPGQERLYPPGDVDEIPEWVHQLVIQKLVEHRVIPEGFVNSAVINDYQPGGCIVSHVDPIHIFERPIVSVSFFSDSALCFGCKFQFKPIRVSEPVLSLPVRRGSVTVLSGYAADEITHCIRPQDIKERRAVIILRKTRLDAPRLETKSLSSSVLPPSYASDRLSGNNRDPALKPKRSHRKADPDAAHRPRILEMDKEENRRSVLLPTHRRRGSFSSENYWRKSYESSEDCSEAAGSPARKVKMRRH

[3] = target: T1, RNA demethylase ALKBH5; assay: Binding affinity to ALKBH5 (66 to 292 residues)(unknown origin) expressed in Escherichia coli BL21(DE3) assessed as increase in melting temperature incubated for 30 mins by thermal shift assay
Target sequence in this assay (Q6P6C2 2-394 limits assumed): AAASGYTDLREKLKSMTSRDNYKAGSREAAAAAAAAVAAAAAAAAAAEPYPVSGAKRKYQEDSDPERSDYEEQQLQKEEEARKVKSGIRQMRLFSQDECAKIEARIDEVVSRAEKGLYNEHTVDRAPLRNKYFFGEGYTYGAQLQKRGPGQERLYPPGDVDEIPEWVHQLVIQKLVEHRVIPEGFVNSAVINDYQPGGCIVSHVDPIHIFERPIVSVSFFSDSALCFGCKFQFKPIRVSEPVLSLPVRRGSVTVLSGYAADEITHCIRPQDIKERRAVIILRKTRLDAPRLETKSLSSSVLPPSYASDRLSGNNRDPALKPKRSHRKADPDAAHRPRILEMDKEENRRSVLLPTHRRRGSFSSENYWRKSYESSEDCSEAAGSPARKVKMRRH

[4] = target: T1, RNA demethylase ALKBH5; assay: Inhibition of ALKBH5 (66 to 292 residues)(unknown origin) expressed in Escherichia coli BL21(DE3) using 5'-ATTGTCA(m6A)CAGCAGA-FAM-3' as substrate incubated for 30 mins in presence of 2 uM of 2-OG by FP based competitive binding assay
Target sequence in this assay (Q6P6C2 whole entry, the tested form may be a part): as the sequence (Q6P6C2 whole entry, the tested form may be a part) above

[5] = target: T1, RNA demethylase ALKBH5; assay: Inhibition of ALKBH5 (66 to 292 residues)(unknown origin) expressed in Escherichia coli BL21(DE3) using 5'-ATTGTCA(m6A)CAGCAGA-FAM-3' as substrate incubated for 30 mins in presence of 0.2 uM of 2-OG by FP based competitive binding assay
Target sequence in this assay (Q6P6C2 whole entry, the tested form may be a part): as above

[6] = target: T1, RNA demethylase ALKBH5; assay: Inhibition of ALKBH5 (66 to 292 residues)(unknown origin) expressed in Escherichia coli BL21(DE3) using 5'-ATTGTCA(m6A)CAGCAGA-FAM-3' as substrate incubated for 30 mins in presence of 200 uM of 2-OG by FP based competitive binding assay
Target sequence in this assay (Q6P6C2 whole entry, the tested form may be a part): as above

[7] = target: T1, RNA demethylase ALKBH5; assay: Inhibition of ALKBH5 (66 to 292 residues)(unknown origin) expressed in Escherichia coli BL21(DE3) using 5'-ATTGTCA(m6A)CAGCAGA-FAM-3' as substrate incubated for 30 mins in presence of 20 uM of 2-OG by FP based competitive binding assay
Target sequence in this assay (Q6P6C2 whole entry, the tested form may be a part): as above

Sequence of Alpha-ketoglutarate-dependent dioxygenase FTO (Q9C0B1 whole entry, the tested form may be a part): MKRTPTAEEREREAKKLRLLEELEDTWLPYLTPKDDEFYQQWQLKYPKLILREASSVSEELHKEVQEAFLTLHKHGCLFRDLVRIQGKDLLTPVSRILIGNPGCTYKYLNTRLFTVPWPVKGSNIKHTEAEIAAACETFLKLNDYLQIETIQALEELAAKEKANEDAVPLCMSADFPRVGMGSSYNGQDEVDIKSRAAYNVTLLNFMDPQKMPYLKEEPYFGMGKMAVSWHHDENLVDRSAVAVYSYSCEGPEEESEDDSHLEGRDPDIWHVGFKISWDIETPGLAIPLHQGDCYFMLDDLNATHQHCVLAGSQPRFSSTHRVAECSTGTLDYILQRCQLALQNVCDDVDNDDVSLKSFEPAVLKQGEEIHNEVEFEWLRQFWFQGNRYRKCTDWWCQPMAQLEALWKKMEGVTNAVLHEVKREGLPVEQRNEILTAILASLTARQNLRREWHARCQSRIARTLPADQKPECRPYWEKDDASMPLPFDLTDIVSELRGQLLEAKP

| SMILES | IC50 [1] [µM] | IC50 [2] [µM] | further results |
| --- | --- | --- | --- |
| O=C(c1cnc2cc(-c3ccccc3Cl)nn2c1)c1cc([N+](=O)[O-])ccc1O | > 200 | 102 | – |
| O=C(O)c1ccc(O)c(C(=O)c2cnc3cc(-c4ccc(Cl)cc4)nn3c2)c1 | > 200 | 141 | – |
| O=C(c1cnc2cc(-c3ccc(O)cc3)nn2c1)c1cc([N+](=O)[O-])ccc1O | 16.6 | 46.4 | – |
| COc1ccc([N+](=O)[O-])cc1C(=O)c1cnc2cc(-c3ccc(Cl)cc3)nn2c1 | > 200 | > 200 | – |
| O=C(c1cnc2cc(-c3ccc(Cl)cc3)nn2c1)c1cc([N+](=O)[O-])ccc1O | > 200 | 15.6 | ΔTm [3]: > 1 °C |
| O=C(c1cnc2cc(-c3cccc(Cl)c3)nn2c1)c1cc([N+](=O)[O-])ccc1O | > 200 | 24.6 | – |
| Cc1ccc(COC(=O)c2ccc(-c3cc4ncc(C(=O)c5cc([N+](=O)[O-])ccc5O)cn4n3)cc2)cc1 | > 200 | 41 | – |
| O=C(OCc1ccc(Cl)cc1)c1ccc(-c2cc3ncc(C(=O)c4cc([N+](=O)[O-])ccc4O)cn3n2)cc1 | > 200 | 10.7 | – |
| O=C(c1cnc2cc(-c3ccc(Cl)cc3)nn2c1)c1cc(C(F)(F)F)ccc1O | > 200 | > 200 | – |
| O=C(c1cnc2cc(-c3ccc(Cl)cc3)nn2c1)c1cccc([N+](=O)[O-])c1O | > 200 | 62.7 | – |
| O=C(c1cnc2cc(-c3ccc(Cl)cc3)nn2c1)c1ccccc1O | > 200 | > 200 | – |
| COC(=O)c1ccc(-c2cc3ncc(C(=O)c4cc([N+](=O)[O-])ccc4O)cn3n2)cc1 | > 200 | 9.12 | – |

Now from value to compound, other results behind:

| IC50 [1] [µM] | IC50 [2] [µM] | SMILES | further results |
| --- | --- | --- | --- |
| > 200 | 23.3 | O=C(c1cnc2cc(-c3ccc(C(F)(F)F)cc3)nn2c1)c1cc([N+](=O)[O-])ccc1O | – |
| > 200 | > 200 | Cc1ccc(-c2cc3ncc(C(=O)c4cc([N+](=O)[O-])ccc4O)cn3n2)cc1 | – |
| – | 67.7 | O=C(O)c1ccnc(C(=O)NS(=O)(=O)c2ccccc2)c1 | IC50 [4]: 135 µM; IC50 [5]: 87.6 µM; IC50 [6]: 269 µM; IC50 [7]: 211 µM |
| – | 45.1 | O=C(c1cnc2cc(-c3ccccc3)nn2c1)c1cc([N+](=O)[O-])ccc1O | – |
| > 200 | 4.64 | O=C(OCc1ccc(C(F)(F)F)cc1)c1ccc(-c2cc3ncc(C(=O)c4cc([N+](=O)[O-])ccc4O)cn3n2)cc1 | – |
| > 200 | 7.88 | O=C(OCc1ccccc1)c1ccc(-c2cc3ncc(C(=O)c4cc([N+](=O)[O-])ccc4O)cn3n2)cc1 | – |
| 5.98 | 56.5 | O=C(O)c1ccc(-c2cc3ncc(C(=O)c4cc([N+](=O)[O-])ccc4O)cn3n2)cc1 | – |
| 8.39 | 14.4 | O=C(c1cnc2cc(-c3ccc(Cl)cc3)nn2c1)c1c(O)ccc([N+](=O)[O-])c1O | – |
